Measurements: patent US20160367497A1, “METHODS AND COMPOSITIONS FOR TREATING NEUROPATHIES” (Washington University, priority 2007, published 2016)

Columns and labels:
Format in all cases: cell-based
[1] = system: neuro2A cells; test: neurite outgrowth in Neuro2a cells; details: for effect on resveratrol-stimulated neurite outgrowth: resveratrol 10 μM, Compound C 10 μM, SIRT1 inhibitors, STO 609 2.5 μM or dnAMPK expression
Protocol: FIG. 11A-D illustrates the resveratrol and AICAR stimulation of neurite outgrowth in Neuro2a cells. Neuro2a cells were switched to serum-starvation medium (medium containing 0.2% FCS) and treated with DMSO (vehicle control), resveratrol (10 μM) or AICAR (1 mM). (A) Serum deprivation of Neuro2a cells results in growth of short neurites that increase in length over 72 h. (B) Resveratrol induced rapid neurite outgrowth resulting in elaborate neurite network formation by 48 h. (C) AICAR stimulated extensive neurite outgrowth similar to that observed with resveratrol. (D).
FIG. 12A-M illustrates the dependency of resveratrol-induced neurite outgrowth and mitochondrial biogenesis on AMPK. Neuro2a cells were infected with lentivirus expressing GFP only (FUGW, control), dominant negative AMPK (dnAMPK) or constitutively active AMPK (caAMPK). Three days later cells were shifted to serum-starvation medium containing DMSO (control) or resveratrol (10 μM). In addition, uninfected Neuro2a cells in serum-starvation medium were treated with resveratrol alone, the AMPK inhibitor Compound C (CC, Biomol International L.P. (Plymouth Meeting, Pa.)) (10 μM) alone or with resveratrol and CC together. Images of the cultures captured in bright field and green fluorescence were overlaid to visualize neurite outgrowth. […] Neurite length in cells treated with caAMPK+resveratrol is also shown (G). […] Values were normalized to the 18S transcript. Data shown is representative of two independent experiments.
Cell culture and Reagents. Neuro2 cells obtained from ATCC were grown in MEM with 1.5 g/L sodium bicarbonate, 0.1 mM nonessential amino acids, 0.1 mM sodium pyruvate, 2 mM L-glutamine with 10% FCS. For differentiation, cells were switched to serum-starvation medium (containing 0.2% FCS). For neurite outgrowth measurements, experiments were done in quadruplicate and 100 neurites per well were randomly measured using the Metamorph software. Dorsal root ganglia sensory and cortical neurons were established from E13.5 mouse embryos, maintained in neurobasal medium supplemented with B27 (and NGF for DRG neurons) and infected with lentiviruses as described (Araki et al., 2004, Science 305:1010-1013; Hawley et al., 2005, Cell Metab 2:21-23). Resveratrol was a gift from Sirtris Pharmaceuticals (Cambridge Mass.) and AICAR was obtained from Toronto Research (North York, Canada). Splitomycin and Compound C were purchased from Biomol (Plymouth Meeting, Pa.) and Calbiochem (San Diego, Calif.). Sirtinol and nicotinamide were purchased from Sigma (Saint Louis, Mo.)
(§1) Neuro2a cells are a widely used as in vitro model of neuronal differentiation. These cells cease to proliferate and begin to differentiate, as evidenced by neurite outgrowth, in response to serum starvation, retinoic acid, or growth factors like neurotrophins and GDNF family ligands. […] Neuro2a cells grown under serum starvation conditions (0.2% fetal calf serum) were treated with AICAR (1 mM) or resveratrol (10 μM).
Since resveratrol activated AMPK and altered the differentiation of Neuro2a cells, we next asked whether AMPK activity was required for resveratrol-induced neurite outgrowth. To address this issue, we infected Neuro2a cells with lentivirus expressing either GFP alone (FUGW-control) or dominant negative AMPK (dnAMPK). After 3 days growth to allow robust lentiviral transgene expression, the medium was replaced with serum starvation medium. […] Resveratrol-induced neurite outgrowth was reduced in the presence of the AMPK pharmacological inhibitor Compound C (CC 10 μM) further supporting the importance of AMPK activity for resveratrol-induced neurite outgrowth.

[2] = system: Tfam, PGC-1α and MFN2 mRNA; test: mitochondrial biogenesis markers, quantitative RT-PCR in Neuro2a cells; details: 10 μM, 3 d
Protocol: Three days later cells were shifted to serum-starvation medium containing DMSO (control) or resveratrol (10 μM). In addition, uninfected Neuro2a cells in serum-starvation medium were treated with resveratrol alone, the AMPK inhibitor Compound C (CC, Biomol International L.P. (Plymouth Meeting, Pa.)) (10 μM) alone or with resveratrol and CC together. […] Values were normalized to the 18S transcript. Data shown is representative of two independent experiments.
Protein and mRNA analysis. […] Quantitative RT-PCR analysis was performed using Sybr-Green methodology on a model 7700 instrument (Applied Biosystems) as previously described (Araki et al., 2004, Science 305:1010-1013).
We treated Neuro2a cells for 3d with either DMSO (control) or resveratrol (10 μM) in the presence or absence of the AMPK inhibitor Compound C (10 μM). We assessed mitochondrial biogenesis by monitoring mRNA levels of mitofusin 2 (MFN2), a mitochondrial protein and marker of mitochondrial mass and two key regulators of mitochondrial biogenesis, peroxisome proliferator activated receptor γ coactivator 1α (PGC1α) and mitochondrial transcription factor A (Tfam) (Kelly, et al., 2004, Genes Dev 18:357-368).

[3] = system: acetyl Co-A carboxylase (ACC); test: ACC phosphorylation in Neuro2a cells (phospho-specific western blot); details: resveratrol 10 μM or AICAR 1 mM; all time points to 72 hr
Protocol: FIG. 10A-D illustrates resveratrol activation of AMP kinase in Neuro2a cells. Neuro2a cells were switched to serum-starvation medium (medium containing 0.2% FCS) and treated with DMSO (vehicle control), resveratrol (10 μM) or 5-aminoimidazole-4-carboxamide-1-β-D-ribofuranoside (AICAR) (1 mM). […] Very low levels of phosphorylated AMPK and ACC were detected in DMSO treated control cells at all time points tested. (C) Densitometric analysis of changes in phosphorylated AMPK and (D) phosphorylated ACC under different conditions is shown.
Plasmids and viruses. […] Quantitative RT-PCR analysis was performed using Sybr-Green methodology on a model 7700 instrument (Applied Biosystems) as previously described (Araki et al., 2004, Science 305:1010-1013). […]
To explore the role of polyphenols, in particular, of resveratrol, we tested whether resveratrol altered the activity of AMPK in neuronal cells. […] To confirm that AMPK activation by resveratrol results in typical AMPK-mediated downstream responses, we monitored phosphorylation of ACC (acetyl Co-A carboxylase), a primary target of activated AMPK. […] To examine a potential mechanism of resveratrol-mediated AMPK activation, we measured cellular ATP levels as a decreased ATP:AMP ratio increases the phosphorylation of AMPK. […]

[4] = system: neuro2A cells; test: Neuro2a cell proliferation, Ki67 immunocytochemistry; details: 0.2% fetal calf serum; AICAR 1 mM or resveratrol 10 μM; 24 h after plating; DMSO controls 50%
Protocol: as §1

[5] = system: neuro2A cells; test: survival of Neuro2A cells in nutrient-deprived conditions; details: regardless of the FCS concentration (10% or 0.2%)
Protocol: When Neuro2A cells are grown in culture in presence of 10% FCS, cells proliferate and ultimately die if cells are not passaged. If grown in the presence of 0.2% FCS, neuro2A cells differentiate and project neurites but ultimately die within one week.

NC(=O)c1cccnc1 [Nam, nicotinamide]
effect on resveratrol-stimulated neurite outgrowth [1]: had no effect

CC(NC(=O)c1ccccc1/N=C/c1c(O)ccc2ccccc12)c1ccccc1 (centres unmarked) [Sirtinol]
effect on resveratrol-stimulated neurite outgrowth [1]: had no effect

Oc1ccc(C=Cc2cc(O)cc(O)c2)cc1 [resveratrol]
increase in MFN2 mRNA [2]: 2 fold
increase in PGC-1α mRNA [2]: 2 fold
increase in Tfam mRNA [2]: ~18 fold
ACC phosphorylation [3]: robust phosphorylation of ACC
neurite outgrowth compared to serum starvation alone ([1]; 0.2% FCS, resveratrol 10 μM or AICAR 1 mM): increased neurite outgrowth
proliferating cells (Ki67) [4]: 11%
cell survival [5]: resistant to death for a prolonged period of time

O=C1CCc2c(ccc3ccccc23)O1 [splitomycin]
effect on resveratrol-stimulated neurite outgrowth [1]: had no effect

O=C(O)c1ccc2c3c1cccc3c(=O)n1c3ccccc3nc21 [STO 609]
effect on resveratrol-stimulated neurite outgrowth [1]: had no effect
